Assay results: the NIST ThermoML archive (doi:10.1016/j.fluid.2017.09.003)
Numbers after ± are expanded uncertainties.

Assay: mn = molality of the nth substance listed, in mol/kg
Details: Liquid, isochoric method

S [hydrogen sulfide] + CCCCn1cc[n+](C)c1.O=S(=O)([O-])C(F)(F)F
Details | molar volume [m3/mol]
303.15 K, 172.6 kPa, m1 = 0.5717 | 0.0001972 ± 1e-07
303.15 K, 339.1 kPa, m1 = 1.141 | 0.000178 ± 1e-07
303.15 K, 491.8 kPa, m1 = 1.715 | 0.0001633 ± 1e-07
303.15 K, 691.5 kPa, m1 = 2.517 | 0.0001472 ± 1e-07
303.15 K, 857 kPa, m1 = 3.192 | 0.0001371 ± 1e-07
303.15 K, 1016.5 kPa, m1 = 3.857 | 0.0001282 ± 1e-07
303.15 K, 1178.1 kPa, m1 = 4.512 | 0.0001212 ± 1e-07
303.15 K, 1368.5 kPa, m1 = 5.449 | 0.0001129 ± 1e-07
303.15 K, 1494.2 kPa, m1 = 6.127 | 0.000108 ± 3e-07
313.15 K, 169.3 kPa, m1 = 0.4237 | 0.0002046 ± 1e-07
313.15 K, 392.6 kPa, m1 = 1.017 | 0.0001836 ± 1e-07
313.15 K, 605 kPa, m1 = 1.634 | 0.0001669 ± 1e-07
313.15 K, 813.7 kPa, m1 = 2.295 | 0.0001529 ± 1e-07
313.15 K, 1021.5 kPa, m1 = 3.03 | 0.0001406 ± 1e-07
313.15 K, 1244.6 kPa, m1 = 3.892 | 0.0001294 ± 1e-07
313.15 K, 1455.3 kPa, m1 = 4.807 | 0.00012 ± 1e-07
313.15 K, 1592.1 kPa, m1 = 5.49 | 0.0001142 ± 3e-07
323.15 K, 188 kPa, m1 = 0.3783 | 0.000208 ± 1e-07
323.15 K, 418.4 kPa, m1 = 0.874 | 0.0001897 ± 1e-07
323.15 K, 647.6 kPa, m1 = 1.409 | 0.0001741 ± 1e-07
323.15 K, 1041.4 kPa, m1 = 2.42 | 0.0001522 ± 1e-07
323.15 K, 1294 kPa, m1 = 3.138 | 0.0001407 ± 1e-07
323.15 K, 1501.2 kPa, m1 = 3.819 | 0.0001319 ± 3e-07
323.15 K, 1614.4 kPa, m1 = 4.192 | 0.0001272 ± 3e-07
333.15 K, 196.6 kPa, m1 = 0.3257 | 0.0002118 ± 1e-07
333.15 K, 459.2 kPa, m1 = 0.7804 | 0.0001944 ± 1e-07
333.15 K, 705.7 kPa, m1 = 1.237 | 0.0001803 ± 1e-07
333.15 K, 907.8 kPa, m1 = 1.635 | 0.00017 ± 1e-07
333.15 K, 1176.8 kPa, m1 = 2.188 | 0.0001581 ± 1e-07
333.15 K, 1400.8 kPa, m1 = 2.685 | 0.0001492 ± 1e-07
333.15 K, 1570.7 kPa, m1 = 3.114 | 0.0001426 ± 1e-07
343.15 K, 207.6 kPa, m1 = 0.279 | 0.0002154 ± 1e-07
343.15 K, 456.9 kPa, m1 = 0.6403 | 0.000201 ± 1e-07
343.15 K, 706.7 kPa, m1 = 1.021 | 0.0001882 ± 1e-07
343.15 K, 923.5 kPa, m1 = 1.369 | 0.0001783 ± 1e-07
343.15 K, 1176.5 kPa, m1 = 1.798 | 0.0001679 ± 1e-07
343.15 K, 1391.1 kPa, m1 = 2.179 | 0.0001599 ± 1e-07
343.15 K, 1632 kPa, m1 = 2.646 | 0.0001515 ± 1e-07

CCCCCC[n+]1ccn(C)c1.O=S(=O)([N-]S(=O)(=O)C(F)(F)F)C(F)(F)F + O=C=O
Details | molar volume [m3/mol]
303.15 K, 228.1 kPa, m2 = 0.1549 | 0.0003078 ± 2e-07
303.15 K, 400.5 kPa, m2 = 0.277 | 0.0002962 ± 2e-07
303.15 K, 642.1 kPa, m2 = 0.4471 | 0.0002815 ± 2e-07
303.15 K, 786.2 kPa, m2 = 0.5432 | 0.0002738 ± 2e-07
303.15 K, 1036.5 kPa, m2 = 0.726 | 0.0002604 ± 2e-07
303.15 K, 1399.2 kPa, m2 = 0.9896 | 0.000243 ± 2e-07
303.15 K, 1689 kPa, m2 = 1.194 | 0.0002316 ± 2e-07
303.15 K, 1806.5 kPa, m2 = 1.29 | 0.0002265 ± 2e-07
303.15 K, 2065.3 kPa, m2 = 1.48 | 0.000217 ± 2e-07
303.15 K, 2289.9 kPa, m2 = 1.65 | 0.0002093 ± 2e-07
303.15 K, 2463.9 kPa, m2 = 1.782 | 0.0002037 ± 2e-07
303.15 K, 2819.3 kPa, m2 = 2.069 | 0.0001926 ± 3e-07
303.15 K, 3076.9 kPa, m2 = 2.267 | 0.0001856 ± 3e-07
303.15 K, 3555.5 kPa, m2 = 2.65 | 0.0001736 ± 3e-07
313.15 K, 337.1 kPa, m2 = 0.1947 | 0.0003066 ± 2e-07
313.15 K, 699.4 kPa, m2 = 0.4069 | 0.0002879 ± 2e-07
313.15 K, 1209.5 kPa, m2 = 0.7242 | 0.0002644 ± 2e-07
313.15 K, 1653.6 kPa, m2 = 1.006 | 0.0002471 ± 2e-07
313.15 K, 2111.8 kPa, m2 = 1.285 | 0.0002306 ± 2e-07
313.15 K, 2538.3 kPa, m2 = 1.615 | 0.0002177 ± 2e-07
313.15 K, 3188.6 kPa, m2 = 2.11 | 0.0001995 ± 1e-07
323.15 K, 465.7 kPa, m2 = 0.2272 | 0.0003063 ± 2e-07
323.15 K, 850.7 kPa, m2 = 0.4281 | 0.0002889 ± 2e-07
323.15 K, 1323.9 kPa, m2 = 0.6731 | 0.0002706 ± 2e-07
323.15 K, 1708.8 kPa, m2 = 0.8789 | 0.0002573 ± 2e-07
323.15 K, 2180.2 kPa, m2 = 1.152 | 0.0002419 ± 2e-07
323.15 K, 2704.6 kPa, m2 = 1.345 | 0.0002273 ± 1e-07
323.15 K, 3105.7 kPa, m2 = 1.546 | 0.0002172 ± 1e-07
333.15 K, 245.6 kPa, m2 = 0.1044 | 0.0003209 ± 2e-07
333.15 K, 519.1 kPa, m2 = 0.2209 | 0.0003096 ± 2e-07
333.15 K, 894.3 kPa, m2 = 0.3855 | 0.0002952 ± 2e-07
333.15 K, 1364.2 kPa, m2 = 0.6046 | 0.0002782 ± 2e-07
333.15 K, 1849.2 kPa, m2 = 0.8295 | 0.0002632 ± 2e-07
333.15 K, 2312.2 kPa, m2 = 1.051 | 0.0002501 ± 2e-07
333.15 K, 2799.2 kPa, m2 = 1.3 | 0.0002373 ± 2e-07
343.15 K, 474.1 kPa, m2 = 0.1783 | 0.0003165 ± 2e-07
343.15 K, 952.8 kPa, m2 = 0.3503 | 0.0003002 ± 2e-07
343.15 K, 1440.2 kPa, m2 = 0.553 | 0.0002849 ± 2e-07
343.15 K, 1937.6 kPa, m2 = 0.7557 | 0.0002707 ± 2e-07
343.15 K, 2453.7 kPa, m2 = 0.974 | 0.0002573 ± 2e-07
343.15 K, 2938.6 kPa, m2 = 1.181 | 0.0002461 ± 2e-07
343.15 K, 3446.9 kPa, m2 = 1.424 | 0.0002344 ± 2e-07
353.15 K, 502 kPa, m2 = 0.1643 | 0.0003208 ± 2e-07
353.15 K, 987.3 kPa, m2 = 0.3338 | 0.0003053 ± 2e-07
353.15 K, 1440.2 kPa, m2 = 0.4916 | 0.0002925 ± 2e-07
353.15 K, 1907.3 kPa, m2 = 0.6717 | 0.0002794 ± 2e-07
353.15 K, 2419.6 kPa, m2 = 0.8598 | 0.0002671 ± 2e-07
353.15 K, 2888.3 kPa, m2 = 1.037 | 0.0002567 ± 2e-07

CCCCn1cc[n+](C)c1.O=S(=O)([O-])C(F)(F)F [1-butyl-3-methylimidazolium trifluoromethanesulfonate] + O=C=O
Details | molar volume [m3/mol]
303.15 K, 233.6 kPa, m2 = 0.1586 | 0.0002163 ± 1e-07
303.15 K, 712 kPa, m2 = 0.5016 | 0.0002044 ± 2e-07
303.15 K, 1209.3 kPa, m2 = 0.8577 | 0.0001937 ± 1e-07
303.15 K, 1706.3 kPa, m2 = 1.236 | 0.0001836 ± 1e-07
303.15 K, 2180.4 kPa, m2 = 1.637 | 0.0001742 ± 1e-07
303.15 K, 2663.3 kPa, m2 = 2.038 | 0.000166 ± 5e-07
303.15 K, 3188 kPa, m2 = 2.481 | 0.000158 ± 6e-07
313.15 K, 244.1 kPa, m2 = 0.1345 | 0.0002188 ± 1e-07
313.15 K, 713.2 kPa, m2 = 0.418 | 0.0002088 ± 1e-07
313.15 K, 1212.5 kPa, m2 = 0.7087 | 0.0001997 ± 1e-07
313.15 K, 1722.9 kPa, m2 = 1.029 | 0.0001907 ± 3e-07
313.15 K, 2194.4 kPa, m2 = 1.329 | 0.0001831 ± 1e-07
313.15 K, 2669.6 kPa, m2 = 1.632 | 0.0001761 ± 1e-07
313.15 K, 3135.3 kPa, m2 = 1.944 | 0.0001696 ± 5e-07
323.15 K, 239.4 kPa, m2 = 0.1102 | 0.0002213 ± 1e-07
323.15 K, 707.7 kPa, m2 = 0.3453 | 0.0002129 ± 1e-07
323.15 K, 1223.5 kPa, m2 = 0.5993 | 0.0002047 ± 1e-07
323.15 K, 1721.4 kPa, m2 = 0.8739 | 0.0001966 ± 1e-07
323.15 K, 2204.9 kPa, m2 = 1.131 | 0.0001897 ± 1e-07
323.15 K, 2697.2 kPa, m2 = 1.397 | 0.0001832 ± 1e-07
323.15 K, 3198.1 kPa, m2 = 1.707 | 0.0001762 ± 5e-07
333.15 K, 239.9 kPa, m2 = 0.0968 | 0.0002234 ± 1e-07
333.15 K, 756.2 kPa, m2 = 0.3124 | 0.0002157 ± 1e-07
333.15 K, 1259.5 kPa, m2 = 0.5379 | 0.0002083 ± 1e-07
333.15 K, 1767.4 kPa, m2 = 0.7626 | 0.0002015 ± 1e-07
333.15 K, 2242.8 kPa, m2 = 0.9814 | 0.0001953 ± 1e-07
333.15 K, 2734.2 kPa, m2 = 1.226 | 0.000189 ± 1e-07
333.15 K, 3236.7 kPa, m2 = 1.474 | 0.0001831 ± 1e-07
343.15 K, 250.3 kPa, m2 = 0.0877 | 0.0002253 ± 1e-07
343.15 K, 746.9 kPa, m2 = 0.2655 | 0.0002189 ± 1e-07
343.15 K, 1255 kPa, m2 = 0.4535 | 0.0002126 ± 1e-07
343.15 K, 1759 kPa, m2 = 0.6555 | 0.0002063 ± 1e-07
343.15 K, 2265.7 kPa, m2 = 0.8561 | 0.0002004 ± 1e-07
343.15 K, 2732.5 kPa, m2 = 1.072 | 0.0001946 ± 1e-07
343.15 K, 3216 kPa, m2 = 1.276 | 0.0001895 ± 1e-07
